From patent US7462600B2, “Macrolides” (Pfizer Inc, priority 2004, dated 2008)
≈ marks a conversion by molar mass, not a printed value. Like-named read-outs stand apart in the source and are kept apart here.

Columns and labels:
Format in all cases: cell-based
[1] = system: Haemophilus influenzae 1218; experiment: MIC, microtiter broth dilution (NCCLS M100-S14), H. influenzae 1218 (susceptible)
Summary of the method: (§1)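 Microtiter broth dilution; interpretation per NCCLS M100-S14; endpoint = MIC. Stock: 40 mg/ml in DMSO.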

[2] = system: Streptococcus pneumoniae 1016; experiment: MIC, microtiter broth dilution (NCCLS M100-S14), S. pneumoniae 1016 (susceptible)
Summary of the method: as §1

[3] = system: Streptococcus pneumoniae 1095; conditions: microtiter broth dilution
Summary of the method: as §1

[4] = system: Streptococcus pneumoniae 1175; conditions: microtiter broth dilution
Summary of the method: as §1

[5] = system: Streptococcus pyogenes 1079; experiment: MIC, microtiter broth dilution (NCCLS M100-S14), S. pyogenes 1079 (ermB)
Summary of the method: as §1

[6] = H. influenzae 1218 (susceptible)
[7] = S. pneumoniae 1016 (susceptible)

Compound | MIC H. influenzae 1218 [1, 6] [µg/mL] | MIC S. pneumo. 1016 [2, 7] [µg/mL] | MIC S. pneumo. 1095 ([3]; S. pneumoniae 1095 (ermB)) [µg/mL] | MIC S. pneumo. 1175 ([4]; S. pneumoniae 1175 (mefA)) [µg/mL] | MIC S. pyogenes 1079 ([5]; S. pyogenes 1079 (ermB)) [µg/mL] | MIC H. influenzae 1218 ([1]; Haemophilus influenzae 1218) [µg/mL] | MIC S. pneumo. 1016 ([2]; Streptococcus pneumoniae 1016) [µg/mL] | MIC S. pneumo. 1095 ([3]; Streptococcus pneumoniae 1095) [µg/mL] | MIC S. pneumo. 1175 ([4]; Streptococcus pneumoniae 1175) [µg/mL] | MIC S. pyogenes 1079 ([5]; Streptococcus pyogenes 1079) [µg/mL]
CCC1OC(=O)C(C)C(=O)C(C)C(OC2OC(C)CC(N(C)C)C2O)C(C)(OC)CC(C)C(=O)C(C)C2N(CC3(O)CCN(Cc4c[nH]c5ncccc45)CC3)C(=O)OC12C (stereo not shown) [Example 14.01, (1H-pyrrolo[2,3-b]pyridin-3-yl)methyl] | 4 (≈ 4.67 µM) | <0.06 | 32 (≈ 37.4 µM) | 1 (≈ 1.17 µM) | >64.00 |  |  |  |  | 
CCC1OC(=O)C(C)C(=O)C(C)C(OC2OC(C)CC(N(C)C)C2O)C(C)(OC)CC(C)C(=O)C(C)C2N(C3CN(Cc4ccccn4)C3)C(=O)OC12C (stereo not shown) [Example 1.02, (pyridin-2-yl)methyl] |  |  |  |  |  | 0.25 (≈ 0.329 µM) | <0.06 | 0.12 (≈ 0.158 µM) | 0.12 (≈ 0.158 µM) | >64.00
CCC1OC(=O)C(C)C(=O)C(C)C(OC2OC(C)CC(N(C)C)C2O)C(C)(OC)CC(C)C(=O)C(C)C2N(C3CN(Cc4ccc(Cl)cc4Cl)C3)C(=O)OC12C (stereo not shown) [Example 1.103, 3-descladinosyl-11,12-dideoxy-6-O-methyl-3-oxo-12,11-(oxycarbonyl-(1-(2,4-dichlorobenzene-1-methyl)-azetidin-3-yl)-imino)-erythromycin A] |  |  |  |  |  | 0.25 (≈ 0.302 µM) | <0.063 | <0.063 | 0.125 (≈ 0.151 µM) | 16 (≈ 19.4 µM)
CCC1OC(=O)C(C)C(=O)C(C)C(OC2OC(C)CC(N(C)C)C2O)C(C)(OC)CC(C)C(=O)C(C)C2N(C3CN(S(=O)(=O)c4ccc5[nH]ncc5c4)C3)C(=O)OC12C (stereo not shown) [Example 3.87, 3-descladinosyl-11,12-dideoxy-6-O-methyl-3-oxo-12,11-(oxycarbonyl-(1-(1H-indazole-5-sulfonyl)-azetidin-3-yl)-imino)-erythromycin A] |  |  |  |  |  | 0.19 (≈ 0.224 µM) | <0.06 | <0.06 | <0.06 | 0.19 (≈ 0.224 µM)
CCC1OC(=O)C(C)C(=O)C(C)C(OC2OC(C)CC(N(C)C)C2O)C(C)(OC)CC(C)C(=O)C(C)C2N(CC3CN(Cc4c[nH]c5cnccc45)C3)C(=O)OC12C (stereo not shown) [4.19] |  |  |  |  |  | 0.5 (≈ 0.616 µM) | <0.06 | <0.06 | 1 (≈ 1.23 µM) | 64 (≈ 78.8 µM)
CCC1OC(=O)C(C)C(=O)C(C)C(OC2OC(C)CC(N(C)C)C2O)C(C)(OC)CC(C)C(=O)C(C)C2N(CC3CCN(Cc4cccnc4OC)C3)C(=O)OC12C (stereo not shown) [11.09] | 4 (≈ 4.9 µM) | <0.06 | 4 (≈ 4.9 µM) | 16 (≈ 19.6 µM) | >64.00 |  |  |  |  | 
CCC1OC(=O)C(C)C(=O)C(C)C(OC2OC(C)CC(N(C)C)C2O)C(C)(OC)CC(C)C(=O)C(C)C2N(C3CCN(Cc4cnc5ccccc5c4)C3)C(=O)OC12C (stereo not shown) [Example 9.04, (quinolin-3-yl)methyl] | 0.5 (≈ 0.608 µM) | <0.06 | <0.06 | <0.06 | 32 (≈ 38.9 µM) |  |  |  |  | 
CCC1OC(=O)C(C)C(=O)C(C)C(OC2OC(C)CC(N(C)C)C2O)C(C)(OC)CC(C)C(=O)C(C)C2N(C3CN(S(=O)(=O)c4cnc5ncccn45)C3)C(=O)OC12C (stereo not shown) [Example 3.17, 3-descladinosyl-11,12-dideoxy-6-O-methyl-3-oxo-12,11-(oxycarbonyl-(1-(imidazo[1,2-a]pyrimidine-3-sulfonyl)-azetidin-3-yl)-imino)-erythromycin A] |  |  |  |  |  | 0.5 (≈ 0.589 µM) | <0.06 | <0.06 | 0.12 (≈ 0.141 µM) | 4 (≈ 4.71 µM)
CC[C@H]1OC(=O)[C@H](C)C(=O)[C@H](C)[C@@H](O[C@@H]2O[C@H](C)C[C@H](N(C)C)[C@H]2O)[C@](C)(OC)C[C@@H](C)C(=O)[C@H](C)[C@H]2N(CC3(C)CN(Cc4c[nH]nc4-c4ccccc4)C3)C(=O)O[C@]12C [6.09] |  |  |  |  |  | 0.5 (≈ 0.587 µM) | <0.06 | <0.06 | 0.25 (≈ 0.293 µM) | >64.00
CC[C@H]1OC(=O)[C@H](C)C(=O)[C@H](C)[C@@H](O[C@@H]2O[C@H](C)C[C@H](N(C)C)[C@H]2O)[C@](C)(OC)C[C@@H](C)C(=O)[C@H](C)[C@H]2N(CC3(C)CN(Cc4ccc5nccnc5c4)C3)C(=O)O[C@]12C [6.04] |  |  |  |  |  | 1 (≈ 1.19 µM) | <0.06 | 0.25 (≈ 0.298 µM) | 0.25 (≈ 0.298 µM) | >64.00
CC[C@H]1OC(=O)[C@H](C)C(=O)[C@H](C)[C@@H](O[C@@H]2O[C@H](C)C[C@H](N(C)C)[C@H]2O)[C@](C)(OC)C[C@@H](C)C(=O)[C@H](C)[C@H]2N(CC3(O)CN(C(=O)c4cccc5cccnc45)C3)C(=O)O[C@]12C [7.20] | 0.5 (≈ 0.586 µM) | <0.06 | 2 (≈ 2.34 µM) | 1 (≈ 1.17 µM) | >64.00 |  |  |  |  | 
CCC1OC(=O)C(C)C(=O)C(C)C(OC2OC(C)CC(N(C)C)C2O)C(C)(OC)CC(C)C(=O)C(C)C2N(C3CN(S(=O)(=O)c4ccc(S(C)(=O)=O)cc4)C3)C(=O)OC12C (stereo not shown) [Example 3.23, 4-(methylsulfonyl) benzenesulfonyl] |  |  |  |  |  | 1 (≈ 1.13 µM) | <0.06 | 0.25 (≈ 0.282 µM) | <0.06 | >64.00
CCC1OC(=O)C(C)C(=O)C(C)C(OC2OC(C)CC(N(C)C)C2O)C(C)(OC)CC(C)C(=O)C(C)C2N(C3CN(Cc4cccc5ncoc45)C3)C(=O)OC12C (stereo not shown) [Example 1.13, (benzooxazol-7-yl)methyl] |  |  |  |  |  | 0.25 (≈ 0.313 µM) | <0.06 | 0.12 (≈ 0.15 µM) | 1 (≈ 1.25 µM) | 64 (≈ 80.1 µM)
CCC1OC(=O)C(C)C(=O)C(C)C(OC2OC(C)CC(N(C)C)C2O)C(C)(OC)CC(C)C(=O)C(C)C2N(CC3CCN(Cc4ccc(-c5ccccn5)cc4)CC3)C(=O)OC12C (stereo not shown) [15.07] | 32 (≈ 36.5 µM) | <0.06 | >64.00 | 1 (≈ 1.14 µM) | >64.00 |  |  |  |  | 
CCC1OC(=O)C(C)C(=O)C(C)C(OC2OC(C)CC(N(C)C)C2O)C(C)(OC)CC(C)C(=O)C(C)C2N(C3CN(Cc4ccc(OC)c5ncccc45)C3)C(=O)OC12C (stereo not shown) [Example 1.70, 3-descladinosyl-11,12-dideoxy-6-O-methyl-3-oxo-12,11-(oxycarbonyl-(1-(8-methoxyquinoline-5-methyl)-azetidin-3-yl)-imino)-erythromycin A] |  |  |  |  |  | 1 (≈ 1.19 µM) | <0.063 | <0.063 | <0.063 | 2 (≈ 2.38 µM)
CCC1OC(=O)C(C)C(=O)C(C)C(OC2OC(C)CC(N(C)C)C2O)C(C)(OC)CC(C)C(=O)C(C)C2N(C3CN(Cc4c(C)cnc5ccccc45)C3)C(=O)OC12C (stereo not shown) [Example 1.98, 3-descladinosyl-11,12-dideoxy-6-O-methyl-3-oxo-12,11-(oxycarbonyl-(1-(3-methylquinoline-4-methyl)-azetidin-3-yl)-imino)-erythromycin A] |  |  |  |  |  | 2 (≈ 2.43 µM) | <0.063 | <0.063 | <0.063 | 0.25 (≈ 0.304 µM)
CCC1OC(=O)C(C)C(=O)C(C)C(OC2OC(C)CC(N(C)C)C2O)C(C)(OC)CC(C)C(=O)C(C)C2N(C3CN(S(=O)(=O)c4ccc(OC)c5nccnc45)C3)C(=O)OC12C (stereo not shown) [Example 3.112, 3-descladinosyl-11,12-dideoxy-6-O-methyl-3-oxo-12,11-(oxycarbonyl-(1-(8-methoxyquinoxaline-5-sulfonyl)-azetidin-3-yl)-imino)erythromycin A] |  |  |  |  |  | 2 (≈ 2.25 µM) | <0.063 | <0.063 | 0.25 (≈ 0.281 µM) | 0.125 (≈ 0.14 µM)
